Experiments:
Male Wistar rats = experiment: Chronic Mild Stress Model of Depression (CMS), consumption of 1% sucrose solution; format: in vivo
Excerpt: CMS uses mild stressors, such as food and water deprivation, cage tilts, changes of cage mates, etc. Over a period of weeks of exposure to the mild stressors, the animals gradually reduce their consumption of a highly preferred sucrose solution which persists (in untreated animals) for several weeks following the cessation of stress. This decreased sensitivity to reward (the sucrose solution) reflects anhedonia, a symptom of a Major Depressive Episode (see for example, Behavioral Pharmacol. 5: Suppl.1, p. 86 (1994) where lithium, carbamazepine and ketoconazole were evaluated in CMS; Psychopharmacology 93:358-364 (1987) where a tricyclic antidepressant was evaluated in CMS; Behavioral Pharmacology: 5:344-350 (1994) where a catechol-O-methyl transferase inhibitor was evaluated in CMS).
Male Wistar rats were brought into the laboratory two months before the start of the experiment at which time they weighed approximately 300 grams. Except as described below, the animals were singly housed, with food and water freely available, and maintained on a 12 hour light/dark cycle (lights on at 8AM) at a temperature of about 22 °C.
The animals were first trained to consume a 1% sucrose solution; training consisted of eight 1 hour baseline tests in which sucrose was presented, in the home cage, following 14 hours food and water deprivation;- intake was measured by weighing pre-weighed bottles containing the sucrose solution at the end of the test. Subsequently, sucrose consumption was monitored, under similar conditions, at weekly intervals throughout the whole experiment.
On the basis of their sucrose intakes in the final baseline test, the animals were divided into two matched groups. One group of animals was subjected to a chronic mild stress procedure for a period of 9 consecutive weeks. Each week of stress regime consisted of: two periods of food or water deprivation (12 and 14 hour), two periods of 45 degree cage tilt (12 and 14 hour+), two periods of intermittent overnight illumination (lights on and off every 2 hours), two 14 hour periods of soiled cage (200 ml water in sawdust bedding), two 14 hour periods of paired housing, two 14 hour periods of low intensity stroboscopic illumination (150 flashes/min). Stressors were applied continuously throughout the day and night, and scheduled randomly. Control animals were housed in a separate room and had no contract with the stressed animals. They were deprived of food and water for the 14 hours preceding each sucrose test, but otherwise food and water were freely available in the home cage. On the basis of their sucrose intake scores following 3 weeks of stress, both stressed and control animals were each divided further into matched subgroups (n=8), and for subsequent five weeks they received daily administrations of vehicle (1ml/kg, intraperitoneally (ip)) imipramine (10mg/kg, ip) or MDL 100,907 (0.002, 0.02 and 0.2 mg/kg orally). All drug injections were in a volume of 1ml/kg body weight. Drugs were administered at 10AM and sucrose tests were carried out 24 hours following the last drug treatment. After five weeks, the treatments were terminated and after one week of withdrawal a final sucrose test was carried out. Stress was continued throughout the period of treatment and withdrawal.
Results were analyzed by multiple analysis of variance, followed by Fisher's LSD test for post hoc comparisons of means.

[1] = test system: MDMA-induced dopamine release in the striatum; conditions: in vivo; cited from earlier work
myocardial tissue = conditions: cited from earlier work
[2] = test system: prepulse inhibition and latent inhibition; conditions: cited from earlier work
[3] = test system: A10 vs. A9 neuronal activity; conditions: after chronic administration; cited from earlier work
[4] = test system: amphetamine-stimulated locomotion; conditions: in vivo; cited from earlier work
platelets = conditions: aggregation as the result of minor alterations in the endothelial lining of the vasculature; cited from earlier work

## CN(C)CCCN1c2ccccc2CCc2ccccc21 [Imipramine, reference compound]
Male Wistar rats; imipramine 10mg/kg ip daily, five weeks
  sucrose intake in control animals: no significant effect
Male Wistar rats; imipramine 10mg/kg ip daily, five weeks, stressed animals
  sucrose intake in stressed animals: gradual increase of sucrose intake
Male Wistar rats; imipramine 10mg/kg ip daily, Week 5
  sucrose intake after five weeks of treatment, stressed animals versus controls: no significant differences between drug-treated stressed animals and drug- and saline-treated controls
Male Wistar rats; imipramine 10mg/kg ip daily, stressed animals
  treatment time after which sucrose intake was significantly increased from Week 0 scores: four
Male Wistar rats; imipramine 10mg/kg ip, stressed animals, one week after withdrawal
  increase of sucrose intake one week after withdrawal from the drug: maintained at similar level

## COc1cccc(C(O)C2CCN(CCc3ccc(F)cc3)CC2)c1OC (stereo not drawn) [MDL 100,907, (+)-α-(2,3-dimethoxyphenyl)-1-[2-(4-fluorophenyl)ethyl]-4-piperidinemethanol]
[1]
  MDMA-induced dopamine release in the striatum: reduction
Male Wistar rats; 0.002mg/kg orally daily, stressed animals
  sucrose intake throughout the whole treatment period: no significant effect
Male Wistar rats; 0.002mg/kg orally daily, stressed animals, Week 5
  sucrose consumption after five weeks of treatment: did not differ from the intakes of the vehicle-treated stressed animals
Male Wistar rats; 0.02 mg/kg orally daily, stressed animals
  treatment time after which sucrose intakes were significantly increased from initial scores (Week 0): two
Male Wistar rats; 0.02 mg/kg orally daily, stressed animals, Week 5
  amount of sucrose solution drunk at the end of treatment period (Week 5): comparable to that of vehicle-treated controls and significantly higher than that of vehicle-treated stressed animals
Male Wistar rats; 0.2 mg/kg orally daily, stressed animals
  treatment time after which sucrose intakes were significantly increased from initial scores (Week 0): three
Male Wistar rats; 0.2 mg/kg orally daily, stressed animals, Week 5
  amount of sucrose solution drunk at the end of treatment period (Week 5): comparable to that of vehicle-treated controls and significantly higher than that of vehicle-treated stressed animals
Male Wistar rats; 0.002, 0.02 and 0.2 mg/kg, control and stressed animals, one week after withdrawal
  sucrose intakes one week after withdrawal from the treatment: not significantly changed
Male Wistar rats; MDL 100,907 0.002, 0.02 and 0.2 mg/kg orally daily, five weeks
  sucrose intake in control animals: no significant effect
Male Wistar rats; MDL 100,907 0.002, 0.02 and 0.2 mg/kg orally daily, five weeks, stressed animals
  CMS-induced deficit in sucrose intake in stressed animals: gradually reversed the CMS-induced deficit in sucrose intake
Myocardial tissue
  anti-arrhythmic activity, classification system of Vaughan Williams: Class III anti-arrhythmic activity
  duration of the action potential of myocardial tissue: increases the duration of the action potential
[2]; disruption produced by 5HT agonists in Wistar rats
  disrupted PPI (prepulse inhibition): restore disrupted PPI
[2]; rat, in vivo
  5-HT2 agonist-induced deficits in prepulse inhibition and latent inhibition: reversal
[3]
  A10 vs. A9 neuronal activity: selective effects
[4]
  amphetamine-stimulated locomotion: blockade
platelets
  rate at which platelets aggregate: decreases the rate at which platelets aggregate

Reference: patent EP1140026B1, “BIODEGRADBLE POLYMER ENCAPSULATED SEROTONIN RECEPTOR ANTAGONIST AND METHOD FOR PREPARING THE SAME” (AVENTIS PHARMACEUTICALS INC., priority 1998, dated 2000)
